For the first experiment, the system named is HCT116. Kind of experiment: In Vitro cytotoxicity measured by the cell colony formation assay. As to conditions: HCT116 colony formation; 72 h with drug, colonies counted after 7 days; ID50 = concentration producing 50% inhibition of colony formation; read-out: IN VITRO ID 50 HCT116. It is filed as cell-based, human. The method, then: Four hundred cells (HCT116) were plated in 60 mm Petri dishes containing 2.7 mL of medium (modified McCoy's 5a medium containing 10% fetal bovine serum and 100 units/mL penicillin and […] streptomycin). The cells were incubated in a CO2 incubator at 37 °C for 5 h for attachment to the bottom of Petri dishes. The compounds identified in Example 2 were made up fresh in medium at ten times the final concentration, and then 0.3 mL of this stock solution was added to the 2.7 mL of medium in the dish. The cells were then incubated with drugs for 72 h at 37 °C. At the end of incubation the drug-containing media were decanted, the dishes were rinsed with 4 mL of Hank's Balance Salt Solution (HBSS), 5 mL of fresh medium was added, and the dishes were returned to the incubator for colony formation. The cell colonies were counted using a colony counter after incubation for 7 days.
`CC=CC(=O)OC1C(=O)C2(C)C(O)CC3OCC3(OC(C)=O)C2C(OC(=O)c2ccccc2)C2(O)CC(OC(=O)C(O)C(NC(=O)OC(C)(C)C)c3cccnc3)C(C)=C1C2(C)C` (centres unmarked) [Compound 2353]: the IC50 is less than 10 nM.

Take `CC=CC(=O)OC1C(=O)C2(C)C(O)CC3OCC3(OC(C)=O)C2C(OC(=O)c2ccccc2)C2(O)CC(OC(=O)C(O)C(NC(=O)OC(C)(C)C)c3ccc([N+](=O)[O-])cc3)C(C)=C1C2(C)C` (centres unmarked) [Compound 2439]: the IC50 was less than 10 nM.

For `CC=CC(=O)OC1C(=O)C2(C)C(O)CC3OCC3(OC(C)=O)C2C(OC(=O)c2ccccc2)C2(O)CC(OC(=O)C(O)C(NC(=O)OC(C)(C)C)c3ccccn3)C(C)=C1C2(C)C` (centres unmarked) [Compound 2348], the IC50 is less than 1 nM.

Still in this experiment, the particulars now being: Homo sapiens, HCT-116; read-out: IN VITRO ID 50 HCT116.
For the compound `CC(=O)O[C@@]12CO[C@@H]1C[C@H](O)[C@@]1(C)C(=O)[C@H](OC(=O)c3ccco3)C3=C(C)[C@@H](OC(=O)[C@H](O)[C@@H](NC(=O)OC(C)(C)C)c4ccc([N+](=O)[O-])cc4)C[C@@](O)([C@@H](OC(=O)c4ccccc4)[C@H]21)C3(C)C` [Compound 2202], the IC50 is less than 1 nM.

Turning to `CC(=O)O[C@@]12CO[C@@H]1C[C@H](O)[C@@]1(C)C(=O)[C@H](OC(=O)c3ccco3)C3=C(C)[C@@H](OC(=O)[C@H](O)[C@@H](NC(=O)OC(C)(C)C)c4cccnc4)C[C@@](O)([C@@H](OC(=O)c4ccccc4)[C@H]21)C3(C)C` [Compound 2124], the IC50 was less than 10 nM.

As to `CC(=O)O[C@@]12CO[C@@H]1C[C@H](O)[C@@]1(C)C(=O)[C@H](OC(=O)c3ccco3)C3=C(C)[C@@H](OC(=O)[C@H](O)[C@H](C=C(C)C)NC(=O)OC(C)(C)C)C[C@@](O)([C@@H](OC(=O)c4ccccc4)[C@H]21)C3(C)C` [Compound 2101], the IC50 is less than 1 nM.

Regarding `CCCC(=O)O[C@H]1C(=O)[C@@]2(C)[C@H]([C@H](OC(=O)c3ccccc3)[C@]3(O)C[C@H](OC(=O)[C@H](O)[C@@H](NC(=O)c4cccs4)c4ccco4)C(C)=C1C3(C)C)[C@]1(OC(C)=O)CO[C@@H]1C[C@@H]2O` [Compound 3656], the IC50 was less than 1 nM.

As for `CC(=O)O[C@@]12CO[C@@H]1C[C@H](O)[C@@]1(C)C(=O)[C@H](OC(=O)C3CC3)C3=C(C)[C@@H](OC(=O)[C@H](O)[C@@H](NC(=O)OCC(C)C)c4cccs4)C[C@@](O)([C@@H](OC(=O)c4ccccc4)[C@H]21)C3(C)C` [Compound 3129], the IC50 is less than 10 nM.

Consider `CC(=O)O[C@@]12CO[C@@H]1C[C@H](O)[C@@]1(C)C(=O)[C@H](OC(=O)C3CC3)C3=C(C)[C@@H](OC(=O)[C@H](O)[C@@H](NC(=O)OC(C)(C)C)c4ccoc4)C[C@@](O)([C@@H](OC(=O)c4ccccc4)[C@H]21)C3(C)C` [Compound 2781], for which the IC50 is less than 1 nM.

Take `CC(=O)OC12COC1CC(O)C1(C)C(=O)C(OC(=O)c3ccco3)C3=C(C)C(OC(=O)C(O)C(NC(=O)OC(C)(C)C)c4ccccc4)CC(O)(C(OC(=O)c4ccccc4)C21)C3(C)C` (centres unmarked) [Compound 2212]: the IC50 is less than 10 nM.

`C/C=C/C(=O)N[C@@H](c1ccoc1)[C@@H](O)C(=O)O[C@H]1C[C@@]2(O)[C@@H](OC(=O)c3ccccc3)[C@@H]3[C@]4(OC(C)=O)CO[C@@H]4C[C@H](O)[C@@]3(C)C(=O)[C@H](OC(=O)CC)C(=C1C)C2(C)C` [Compound 4888]: the IC50 is less than 1 nM.

With `CCC(=O)O[C@H]1C(=O)[C@@]2(C)[C@H]([C@H](OC(=O)c3ccccc3)[C@]3(O)C[C@H](OC(=O)[C@H](O)[C@@H](NC(=O)OC(C)C)c4ccco4)C(C)=C1C3(C)C)[C@]1(OC(C)=O)CO[C@@H]1C[C@@H]2O` [Compound 3522], the IC50 is less than 1 nM.

As to `CC(=O)O[C@@]12CO[C@@H]1C[C@H](O)[C@@]1(C)C(=O)[C@H](OC(=O)C3CC3)C3=C(C)[C@@H](OC(=O)[C@H](O)[C@@H](NC(=O)c4ccccc4)c4ccccn4)C[C@@](O)([C@@H](OC(=O)c4ccccc4)[C@H]21)C3(C)C` [Compound 2844], the IC50 was less than 10 nM.

For the compound `CCC(=O)O[C@H]1C(=O)[C@@]2(C)[C@H]([C@H](OC(=O)c3ccccc3)[C@]3(O)C[C@H](OC(=O)[C@H](O)[C@@H](NC(=O)c4ccco4)c4ccco4)C(C)=C1C3(C)C)[C@]1(OC(C)=O)CO[C@@H]1C[C@@H]2O` [Compound 3818], the IC50 is less than 1 nM.

With `CC(=O)O[C@@]12CO[C@@H]1C[C@H](O)[C@@]1(C)C(=O)[C@H](OC(=O)C3CC3)C3=C(C)[C@@H](OC(=O)[C@H](O)[C@H](C=C(C)C)NC(=O)c4ccccc4)C[C@@](O)([C@@H](OC(=O)c4ccccc4)[C@H]21)C3(C)C` [Compound 0890], the IC50 was less than 1 nM.

For the compound `CC(=O)O[C@@]12CO[C@@H]1C[C@H](O)[C@@]1(C)C(=O)[C@H](OC(=O)C=C(C)C)C3=C(C)[C@@H](OC(=O)[C@H](O)[C@@H](NC(=O)OC(C)(C)C)c4ccoc4)C[C@@](O)([C@@H](OC(=O)c4ccccc4)[C@H]21)C3(C)C` [Compound 2499], the IC50 was less than 1 nM.

`CC(=O)O[C@@]12CO[C@@H]1C[C@H](O)[C@@]1(C)C(=O)[C@H](OC(=O)C3CC3)C3=C(C)[C@@H](OC(=O)[C@H](O)[C@@H](NC(=O)c4ccccc4)c4ccoc4)C[C@@](O)([C@@H](OC(=O)c4ccccc4)[C@H]21)C3(C)C` [Compound 2826]: the IC50 was less than 1 nM.

Turning to `CCOC(=O)N[C@@H](c1cccs1)[C@@H](O)C(=O)O[C@H]1C[C@@]2(O)[C@@H](OC(=O)c3ccccc3)[C@@H]3[C@]4(OC(C)=O)CO[C@@H]4C[C@H](O)[C@@]3(C)C(=O)[C@H](OC(=O)C3CC3)C(=C1C)C2(C)C` [Compound 4051], the IC50 was less than 1 nM.

On to `CCC(=O)O[C@H]1C(=O)[C@@]2(C)[C@H]([C@H](OC(=O)c3ccccc3)[C@]3(O)C[C@H](OC(=O)[C@H](O)[C@@H](NC(=O)OC(C)C)c4cccs4)C(C)=C1C3(C)C)[C@]1(OC(C)=O)CO[C@@H]1C[C@@H]2O` [Compound 3361], for which the IC50 was less than 1 nM.

For `CCC(=O)O[C@H]1C(=O)[C@@]2(C)[C@H]([C@H](OC(=O)c3ccccc3)[C@]3(O)C[C@H](OC(=O)[C@H](O)[C@@H](NC(=O)OC(C)(C)C)c4ccoc4)C(C)=C1C3(C)C)[C@]1(OC(C)=O)CO[C@@H]1C[C@@H]2O` [Compound 0549], the IC50 was less than 10 nM.

Consider `CC(=O)O[C@@]12CO[C@@H]1C[C@H](O)[C@@]1(C)C(=O)[C@H](OC(=O)c3cccs3)C3=C(C)[C@@H](OC(=O)[C@H](O)[C@@H](NC(=O)OC(C)(C)C)C4CCC4)C[C@@](O)([C@@H](OC(=O)c4ccccc4)[C@H]21)C3(C)C` [Compound 1970], for which the IC50 was less than 10 nM.

Turning to `CC(=O)OC12COC1CC(O)C1(C)C(=O)C(OC(=O)C(C)C)C3=C(C)C(OC(=O)C(O)C(NC(=O)OC(C)(C)C)c4cccs4)CC(O)(C(OC(=O)c4ccccc4)C21)C3(C)C` (centres unmarked) [Compound 2287], the IC50 was less than 1 nM.

As for `CC(=O)O[C@@]12CO[C@@H]1C[C@H](O)[C@@]1(C)C(=O)[C@H](OC(=O)c3ccco3)C3=C(C)[C@@H](OC(=O)[C@H](O)[C@@H](NC(=O)OC(C)(C)C)c4ccccn4)C[C@@](O)([C@@H](OC(=O)c4ccccc4)[C@H]21)C3(C)C` [Compound 2111], the IC50 is less than 1 nM.

For `CCCC(=O)O[C@H]1C(=O)[C@@]2(C)[C@H]([C@H](OC(=O)c3ccccc3)[C@]3(O)C[C@H](OC(=O)[C@H](O)[C@@H](NC(=O)c4ccco4)c4cccs4)C(C)=C1C3(C)C)[C@]1(OC(C)=O)CO[C@@H]1C[C@@H]2O` [Compound 3352], the IC50 is less than 1 nM.

`CC=CC(=O)NC(c1ccoc1)C(O)C(=O)OC1CC2(O)C(OC(=O)c3ccccc3)C3C4(OC(C)=O)COC4CC(O)C3(C)C(=O)C(OC(=O)C3CC3)C(=C1C)C2(C)C` (centres unmarked) [Compound 4944]: the IC50 is less than 1 nM.

Turning to `CCCC(=O)O[C@H]1C(=O)[C@@]2(C)[C@H]([C@H](OC(=O)c3ccccc3)[C@]3(O)C[C@H](OC(=O)[C@H](O)[C@@H](NC(=O)OC(C)(C)C)c4ccccc4)C(C)=C1C3(C)C)[C@]1(OC(C)=O)CO[C@@H]1C[C@@H]2O` [Compound 1060], the IC50 was less than 1 nM.

On to `CCCC(=O)O[C@H]1C(=O)[C@@]2(C)[C@H]([C@H](OC(=O)c3ccccc3)[C@]3(O)C[C@H](OC(=O)[C@H](O)[C@@H](NC(=O)OCC(C)C)C4CC4)C(C)=C1C3(C)C)[C@]1(OC(C)=O)CO[C@@H]1C[C@@H]2O` [Compound 4808], for which the IC50 was less than 10 nM.

`CCCC(=O)O[C@H]1C(=O)[C@@]2(C)[C@H]([C@H](OC(=O)c3ccccc3)[C@]3(O)C[C@H](OC(=O)[C@H](O)[C@@H](NC(=O)OC(C)(C)C)c4cccnc4)C(C)=C1C3(C)C)[C@]1(OC(C)=O)CO[C@@H]1C[C@@H]2O` [Compound 0966]: the IC50 is less than 10 nM.

As for `CC(=O)O[C@@]12CO[C@@H]1C[C@H](O)[C@@]1(C)C(=O)[C@H](OC(=O)c3ccco3)C3=C(C)[C@@H](OC(=O)[C@H](O)[C@@H](NC(=O)OC(C)(C)C)C4CCC4)C[C@@](O)([C@@H](OC(=O)c4ccccc4)[C@H]21)C3(C)C` [Compound 2199], the IC50 is less than 10 nM.

Consider `CCCC(=O)O[C@H]1C(=O)[C@@]2(C)[C@H]([C@H](OC(=O)c3ccccc3)[C@]3(O)C[C@H](OC(=O)[C@H](O)[C@@H](NC(=O)OC(C)C)c4ccco4)C(C)=C1C3(C)C)[C@]1(OC(C)=O)CO[C@@H]1C[C@@H]2O` [Compound 3417], for which the IC50 is less than 1 nM.

For `CC(=O)O[C@@]12CO[C@@H]1C[C@H](O)[C@@]1(C)C(=O)[C@H](OC(=O)c3cccs3)C3=C(C)[C@@H](OC(=O)[C@H](O)[C@H](C=C(C)C)NC(=O)OC(C)(C)C)C[C@@](O)([C@@H](OC(=O)c4ccccc4)[C@H]21)C3(C)C` [Compound 1879], the IC50 is less than 10 nM.

As for `CCCC(=O)O[C@H]1C(=O)[C@@]2(C)[C@H]([C@H](OC(=O)c3ccccc3)[C@]3(O)C[C@H](OC(=O)[C@H](O)[C@@H](NC(=O)c4ccccc4)c4cccs4)C(C)=C1C3(C)C)[C@]1(OC(C)=O)CO[C@@H]1C[C@@H]2O` [Compound 3258], the IC50 is less than 1 nM.
